Reference: PMC6934184, “Selective DNA-PKcs inhibition extends the therapeutic index of localized radiotherapy and chemotherapy” (The Journal of Clinical Investigation, 2019)

Target: T1, PAK6 (Homo sapiens, UniProt Q9NQU5)
T1 construct: purchased Thermo Fisher Scientific (Life Technologies) SelectScreen
Experiment: SelectScreen Z'LYTE
Format: biochemical
Summary of the method: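 SelectScreen broad panel; activity (Z'LYTE, Adapta) plus binding formats. ATP: Km app for CSF1R Z'LYTE; 10 for CAMK1 Adapta. Readout = % per kinase.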

T1 sequence (Q9NQU5 whole entry): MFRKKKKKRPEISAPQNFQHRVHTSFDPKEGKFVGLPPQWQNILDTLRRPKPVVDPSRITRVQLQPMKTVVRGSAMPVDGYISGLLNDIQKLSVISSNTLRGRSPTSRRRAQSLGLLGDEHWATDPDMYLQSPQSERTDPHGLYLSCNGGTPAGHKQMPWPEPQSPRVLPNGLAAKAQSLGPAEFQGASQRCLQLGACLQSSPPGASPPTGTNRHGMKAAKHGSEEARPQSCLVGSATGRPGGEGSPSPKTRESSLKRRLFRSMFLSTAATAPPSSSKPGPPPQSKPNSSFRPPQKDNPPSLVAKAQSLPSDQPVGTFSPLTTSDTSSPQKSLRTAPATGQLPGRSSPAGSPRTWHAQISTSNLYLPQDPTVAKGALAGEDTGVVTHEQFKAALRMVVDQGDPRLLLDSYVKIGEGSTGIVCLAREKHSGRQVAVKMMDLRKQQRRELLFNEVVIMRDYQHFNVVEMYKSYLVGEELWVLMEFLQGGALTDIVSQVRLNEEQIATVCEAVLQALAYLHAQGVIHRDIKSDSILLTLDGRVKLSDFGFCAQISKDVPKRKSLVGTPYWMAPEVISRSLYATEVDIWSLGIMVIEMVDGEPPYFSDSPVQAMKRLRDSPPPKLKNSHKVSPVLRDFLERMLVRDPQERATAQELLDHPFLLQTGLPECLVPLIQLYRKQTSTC

CN(C(=O)CN1CCOCC1)c1ccc2sc3c(-c4cccc5c(=O)cc(N6CC7CCC(C6)O7)oc45)cccc3c2c1 [NU5455]
inhibition at 1 µM: 3%
